Test systems include HOP-62 NSCLC; ACHN renal; SNB-19 CNS; K-562 leukemia; OVCAR-4 ovarian; DU-145 prostate; HCT-116 colon; BT-549 breast; A498 renal; T-47D breast; NCI-H226 lung; MDA-N; UACC-62 melanoma; A549 NSCLC; NCI/ADR-RES ovarian; SK-MEL-5 melanoma; HCT-15 colon; COLO 205 colon; HOP-92 NSCLC; LOX IMVI melanoma.
Assay in all cases: growth of human tumour cells (NCI), 48 h

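96-well plates; 48 h exposure; 5 concentrations. Endpoints by linear interpolation between flanking doses. Not reached: highest tested concentration assigned. Definition used: TGI = concentration required for complete inhibition of growth.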 A value given as a limit tells only on which side of the number the result lay.

As to `Cc1ccc(C(=C2Sc3ccccc3S2)C(=C2Sc3ccccc3S2)c2ccc(C)s2)s1`, the TGI in the assay with HOP-62 NSCLC, in the assay on ACHN renal, in the assay with SNB-19 CNS, in the assay with K-562 leukemia, in the assay on OVCAR-4 ovarian and with DU-145 prostate was over 100 µM each time. Further, the TGI in the assay with HCT-116 colon, with BT-549 breast, in the assay with A498 renal, in the assay with T-47D breast, with NCI-H226 lung and with MDA-N was over 100 µM throughout. Moreover, the TGI with UACC-62 melanoma, with A549 NSCLC, in the assay on NCI/ADR-RES ovarian, in the assay on SK-MEL-5 melanoma, in the assay with HCT-15 colon and in the assay on COLO 205 colon was over 100 µM each time.
On to `CCN(CC)CCn1c(=O)c2cccnc2n2c3c(=O)n(C)c(=O)n(C)c3nc12`, for which the TGI with HOP-62 NSCLC, with ACHN renal, in the assay with SNB-19 CNS, in the assay with K-562 leukemia, in the assay with OVCAR-4 ovarian and in the assay on DU-145 prostate was over 100 µM in each case. Besides, the TGI in the assay with HCT-116 colon, with BT-549 breast, with T-47D breast, in the assay with NCI-H226 lung, in the assay with MDA-N and in the assay on UACC-62 melanoma was over 100 µM each time. The TGI is over 100 µM in the assay on A549 NSCLC; over 100 µM in the assay on NCI/ADR-RES ovarian; over 100 µM in the assay with SK-MEL-5 melanoma; over 100 µM with HOP-92 NSCLC; 27.3 µM with HCT-15 colon; over 100 µM in the assay on COLO 205 colon.
`O=C1c2ccccc2-c2c1c(-c1ccc(F)cc1)nc1ccc3ccccc3c21`: the TGI with HOP-62 NSCLC, with ACHN renal, in the assay with SNB-19 CNS, with K-562 leukemia, with OVCAR-4 ovarian and with DU-145 prostate was over 100 µM each time. The TGI in the assay on HCT-116 colon, with BT-549 breast, in the assay with A498 renal, in the assay on T-47D breast, with NCI-H226 lung and with MDA-N was over 100 µM throughout. For the same compound, the TGI in the assay with UACC-62 melanoma, in the assay on A549 NSCLC, in the assay with LOX IMVI melanoma, with NCI/ADR-RES ovarian, in the assay with HCT-15 colon and with COLO 205 colon was over 100 µM each time.
`Cc1nc(N)c(N2CCN([N+](=O)[O-])CC2)c(=O)[nH]1`: the TGI with HOP-62 NSCLC, in the assay with ACHN renal, with SNB-19 CNS, in the assay with K-562 leukemia, in the assay with OVCAR-4 ovarian and with DU-145 prostate was over 100 µM throughout. The TGI with HCT-116 colon, with BT-549 breast, in the assay with A498 renal, in the assay with T-47D breast, in the assay on NCI-H226 lung and in the assay on MDA-N was over 100 µM throughout. Further, the TGI in the assay with A549 NSCLC, in the assay with LOX IMVI melanoma, in the assay with NCI/ADR-RES ovarian, in the assay on HCT-15 colon and in the assay on COLO 205 colon was over 100 µM throughout.
On to `COc1cccc2c(=O)oc(-c3ccc(C(C)(C)C)cc3)nc12`, for which the TGI in the assay with HOP-62 NSCLC, with ACHN renal, in the assay with SNB-19 CNS, in the assay with K-562 leukemia, in the assay with OVCAR-4 ovarian and in the assay on DU-145 prostate was over 100 µM each time. For the same compound, the TGI in the assay with HCT-116 colon, with BT-549 breast, with A498 renal, in the assay with T-47D breast, in the assay with MDA-N and in the assay on UACC-62 melanoma was over 100 µM each time. Besides, the TGI is over 100 µM with A549 NSCLC; 53.9 µM in the assay on LOX IMVI melanoma; over 100 µM with NCI/ADR-RES ovarian; 87.4 µM in the assay with SK-MEL-5 melanoma; over 100 µM with HOP-92 NSCLC; over 100 µM in the assay with HCT-15 colon. In the assay with COLO 205 colon, this compound yielded a TGI of over 100 µM.
For the compound `Cc1ccc2c(c1)C(=O)C1(Cc3ccccc3C1=O)C2` (stereo not drawn), the TGI in the assay on HOP-62 NSCLC, in the assay on ACHN renal, in the assay on SNB-19 CNS, with K-562 leukemia, in the assay on OVCAR-4 ovarian and with DU-145 prostate was over 100 µM in each case. Further, the TGI with HCT-116 colon, in the assay on A498 renal, in the assay on T-47D breast, with NCI-H226 lung, with MDA-N and in the assay on UACC-62 melanoma was over 100 µM throughout. The TGI in the assay on A549 NSCLC, in the assay on LOX IMVI melanoma, in the assay with NCI/ADR-RES ovarian, in the assay on SK-MEL-5 melanoma, in the assay with HOP-92 NSCLC and with HCT-15 colon was over 100 µM in each case. This compound also yielded a TGI in the assay with COLO 205 colon of over 100 µM.
Consider `NC1=NCC(CN2CCOCC2)O1` (stereo not drawn), for which the TGI in the assay with HOP-62 NSCLC, with ACHN renal, in the assay with SNB-19 CNS, in the assay on K-562 leukemia, in the assay with OVCAR-4 ovarian and in the assay with DU-145 prostate was over 100 µM throughout. In addition, the TGI with HCT-116 colon, in the assay with BT-549 breast, with A498 renal, with T-47D breast, with MDA-N and with UACC-62 melanoma was over 100 µM in each case. Moreover, the TGI with A549 NSCLC, in the assay on LOX IMVI melanoma, in the assay with NCI/ADR-RES ovarian, with SK-MEL-5 melanoma, in the assay with HOP-92 NSCLC and in the assay on HCT-15 colon was over 100 µM in each case. The TGI in the assay on COLO 205 colon is over 100 µM.

The record behind these values is PubChem BioAssay (NCI).
